In ChEMBL document CHEMBL5727120, “Substituted pyrrolidines as mGluR5 antagonists” (2019):

Target: Metabotropic glutamate receptor 5 (Rattus norvegicus, UniProt P31424)
Test: Functional Calcium Flux Assay: For functional assays, HEK293 cells stably expressing recombinant rat mGluR5 were seeded in 384-well plates and dye loaded using Fluo-8. Cells were then washed to remove the un-incorporated dye. Antagonist evaluation was performed following a 15 min incubation of the test compound followed by the addition of submaximal concentration of glutamate. Intracellular calcium ([Ca2+]i) measurements were performed using a fluorometric imaging plate reader (FLIPR, Molecular Devices). The glutamate-evoked increase in [Ca2+]i in the presence of the test compounds was compared to the response to glutamate alone (the positive control). Antagonist inhibition curves were fitted with a 4-parameter logistic equation giving IC50 values, and Hill coefficients using an iterative nonlinear curve fitting algorithm.

Sequence of Metabotropic glutamate receptor 5 (P31424 whole entry): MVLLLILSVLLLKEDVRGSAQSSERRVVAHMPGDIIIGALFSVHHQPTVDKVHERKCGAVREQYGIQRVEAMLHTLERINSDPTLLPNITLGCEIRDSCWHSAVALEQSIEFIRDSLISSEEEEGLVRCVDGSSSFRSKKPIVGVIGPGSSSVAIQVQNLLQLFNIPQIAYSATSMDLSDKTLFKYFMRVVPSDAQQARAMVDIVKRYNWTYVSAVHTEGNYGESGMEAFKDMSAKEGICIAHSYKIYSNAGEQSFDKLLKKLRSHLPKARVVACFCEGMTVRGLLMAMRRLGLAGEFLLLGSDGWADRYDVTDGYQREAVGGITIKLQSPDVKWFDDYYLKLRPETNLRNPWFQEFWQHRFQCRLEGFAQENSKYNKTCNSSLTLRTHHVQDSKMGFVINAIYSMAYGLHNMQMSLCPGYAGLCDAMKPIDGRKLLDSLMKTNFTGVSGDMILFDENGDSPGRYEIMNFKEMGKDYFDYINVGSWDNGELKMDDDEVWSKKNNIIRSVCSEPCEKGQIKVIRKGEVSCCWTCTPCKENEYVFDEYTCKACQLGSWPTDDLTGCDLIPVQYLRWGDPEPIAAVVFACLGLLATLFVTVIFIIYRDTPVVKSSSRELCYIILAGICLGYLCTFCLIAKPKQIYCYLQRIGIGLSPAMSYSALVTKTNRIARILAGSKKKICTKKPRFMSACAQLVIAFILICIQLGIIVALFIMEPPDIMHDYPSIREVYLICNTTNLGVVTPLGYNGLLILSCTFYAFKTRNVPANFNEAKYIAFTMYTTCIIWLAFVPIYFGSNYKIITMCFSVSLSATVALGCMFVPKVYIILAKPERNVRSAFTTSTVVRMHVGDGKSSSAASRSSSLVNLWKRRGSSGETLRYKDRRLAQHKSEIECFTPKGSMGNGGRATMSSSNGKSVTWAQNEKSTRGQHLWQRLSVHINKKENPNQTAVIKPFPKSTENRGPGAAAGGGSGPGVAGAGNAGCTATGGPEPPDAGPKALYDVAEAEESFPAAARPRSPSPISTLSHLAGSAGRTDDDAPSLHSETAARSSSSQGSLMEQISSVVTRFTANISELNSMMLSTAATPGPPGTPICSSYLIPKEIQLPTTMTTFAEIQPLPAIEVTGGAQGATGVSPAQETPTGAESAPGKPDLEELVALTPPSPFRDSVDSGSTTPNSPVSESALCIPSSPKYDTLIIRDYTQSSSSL

With `N#Cc1cc(F)cc(N2CC3CC3(C#Cc3cccc(Cl)n3)C2)c1` (stereo unspecified) the IC50 was less than 500 nM.
